Reference: patent publication US20230113037A1 (Bayer Aktiengesellschaft, priority 2019, published 2023)
pIC50: −log10 of the molar value. Like-named read-outs stand apart in the source and are kept apart here.

Legend:
AHR [1] = target: T1, AHR (Homo sapiens, UniProt P35869); experiment: In vitro assay 1: antagonism in human cell line (AHR transactivation, firefly luciferase reporter, kynurenic acid prestimulated); assay type: cell-based; conditions: AHR Antagonism Human IC50 [M]
T1 construct: U87 MG glioblastoma cells (ATCC #HTB-14) endogenously expressing AHR; endogenous in cells; host or cells: U87 MG glioblastoma cells (ATCC #HTB-14)
T1 sequence (P35869 11-848): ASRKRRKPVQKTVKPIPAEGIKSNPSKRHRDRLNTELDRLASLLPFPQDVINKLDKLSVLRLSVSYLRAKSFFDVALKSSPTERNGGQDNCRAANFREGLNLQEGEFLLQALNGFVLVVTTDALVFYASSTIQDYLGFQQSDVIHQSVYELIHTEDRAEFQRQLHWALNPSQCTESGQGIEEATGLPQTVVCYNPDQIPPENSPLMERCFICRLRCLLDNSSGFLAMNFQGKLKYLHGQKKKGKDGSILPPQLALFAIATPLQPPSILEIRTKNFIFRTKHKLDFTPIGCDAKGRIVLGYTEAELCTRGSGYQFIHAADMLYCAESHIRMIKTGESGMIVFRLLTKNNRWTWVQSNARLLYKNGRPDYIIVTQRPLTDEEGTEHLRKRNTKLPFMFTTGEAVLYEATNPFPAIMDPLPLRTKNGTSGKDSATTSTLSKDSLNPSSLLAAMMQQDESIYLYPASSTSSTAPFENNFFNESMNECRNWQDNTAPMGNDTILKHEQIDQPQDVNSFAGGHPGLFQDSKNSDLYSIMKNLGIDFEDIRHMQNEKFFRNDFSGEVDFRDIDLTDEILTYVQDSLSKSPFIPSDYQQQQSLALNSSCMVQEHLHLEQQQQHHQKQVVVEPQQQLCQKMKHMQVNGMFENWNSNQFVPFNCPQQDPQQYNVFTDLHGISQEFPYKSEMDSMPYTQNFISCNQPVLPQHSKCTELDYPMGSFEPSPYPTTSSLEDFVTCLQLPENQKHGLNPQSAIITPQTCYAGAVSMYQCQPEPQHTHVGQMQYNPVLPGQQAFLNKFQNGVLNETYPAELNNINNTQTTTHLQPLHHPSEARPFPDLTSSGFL
How it was run: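 Antagonism measured as loss of kynurenic acid-driven firefly luciferase from DRE reporter in stably transfected U87 MG cells; constitutive Renilla signal monitors cytotoxicity. Positive/negative control normalization, staurosporine 5 μM with 150 μM kynurenic acid as inhibition control; replicates given as mean or median.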

AHR [2] = target: T2, AHR (Mus musculus, UniProt P30561); experiment: In vitro assay 3: antagonism in mouse cell line (AHR transactivation, firefly luciferase reporter, kynurenic acid prestimulated); assay type: cell-based
T2 sequence (P30561 1-848 P471L/N533S/M589L): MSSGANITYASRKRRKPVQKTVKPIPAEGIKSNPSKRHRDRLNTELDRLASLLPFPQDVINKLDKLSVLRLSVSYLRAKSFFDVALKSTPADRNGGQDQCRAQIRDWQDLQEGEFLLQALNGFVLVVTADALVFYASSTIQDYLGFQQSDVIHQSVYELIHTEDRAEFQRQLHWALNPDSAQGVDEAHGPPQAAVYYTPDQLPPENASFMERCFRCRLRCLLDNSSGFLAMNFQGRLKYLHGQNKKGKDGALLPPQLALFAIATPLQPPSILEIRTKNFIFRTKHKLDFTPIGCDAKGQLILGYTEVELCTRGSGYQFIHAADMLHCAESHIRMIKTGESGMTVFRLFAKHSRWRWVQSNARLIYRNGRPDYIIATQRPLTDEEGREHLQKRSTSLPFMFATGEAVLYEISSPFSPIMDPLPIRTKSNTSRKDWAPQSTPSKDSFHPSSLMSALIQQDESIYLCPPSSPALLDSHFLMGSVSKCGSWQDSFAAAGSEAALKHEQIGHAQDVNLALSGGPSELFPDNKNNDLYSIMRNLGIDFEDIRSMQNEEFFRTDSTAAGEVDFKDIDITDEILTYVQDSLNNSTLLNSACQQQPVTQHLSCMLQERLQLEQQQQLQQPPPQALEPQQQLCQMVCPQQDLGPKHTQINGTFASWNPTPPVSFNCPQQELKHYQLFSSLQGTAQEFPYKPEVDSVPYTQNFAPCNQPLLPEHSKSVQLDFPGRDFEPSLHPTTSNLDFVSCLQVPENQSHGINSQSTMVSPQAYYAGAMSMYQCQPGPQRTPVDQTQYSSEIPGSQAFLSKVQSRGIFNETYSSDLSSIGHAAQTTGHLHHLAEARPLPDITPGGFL
How it was run: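 Kynurenic acid-prestimulated mouse reporter cells; stable AHR-inducible firefly luc construct with DRE sites in promoter. No-agonist wells = positive inhibition ctrl. Luminescence normalized to pos/neg ctrls; n>1 reported as mean or median.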

[3] = mouse Hepa 1c1c7 cells, 200 μM kynurenic acid, 20 hours, read-out: AHR Antagonism Mouse IC50
[4] = Hepa 1c1c7 cells, 200 μM kynurenic acid, 20 hours, firefly luciferase reporter, read-out: AHR Antagonism Mouse IC50

Row | Structure (SMILES) | IC50 (AHR [1]) | pIC50 (AHR [2]; [3]) | IC50 (AHR [1]; firefly luciferase reporter) | pIC50 (AHR [2]; [4]) | pIC50 (AHR [2]; read-out: AHR Antagonism Mouse IC50, mouse Hepa 1c1c7 cells, 200 μM kynurenic acid, 20 hours)
1 | O=C1NCCCC[C@H]1Nc1nc2ccccc2c2nc(-c3cnccn3)nn12 [Example 689, (3R)-3-{[2-(pyrazin-2-yl)[1,2,4]triazolo[1,5-c]quinazolin-5-yl]amino}azepan-2-one] | 1.6e-07 M | 6.81 |  |  | 
2 | Cc1ccccc1-c1nc2c3ccccc3nc(NC3CNCCNC3=O)n2n1 (single isomer, unassigned) [Example 47, 6-{[2-(2-methylphenyl)[1,2,4]triazolo[1,5-c]quinazolin-5-yl]amino}-1,4-diazepan-5-one] | 1.86e-08 M | 7.55 |  |  | 
3 | Cc1ncc(-c2nc3c4ccccc4nc(N[C@@H]4CCCCNC4=O)n3n2)cc1F [Example 641, (3R)-3-{[2-(5-fluoro-6-methylpyridin-3-yl)[1,2,4]triazolo[1,5-c]quinazolin-5-yl]amino}azepan-2-one] | 6.85e-09 M | 8.61 |  |  | 
4 | COc1ccc(-c2nc3c4cccc(C)c4nc(N[C@H]4CCCCNC4=O)n3n2)cc1 [Example 144] | > 2e-06 M | 7.20 |  |  | 
5 | O=C1NCCCC[C@H]1Nc1nc2c(Br)cc(Br)cc2c2nc(-c3cccc(F)c3)nn12 [Example 592, (3R)-3-{[7,9-dibromo-2-(3-fluorophenyl)[1,2,4]triazolo[1,5-c]quinazolin-5-yl]amino}azepan-2-one] | 5.21e-07 M | < 4.70 |  |  | 
6 | CC(C)n1cc(-c2nc3c4cccc(Cl)c4nc(N[C@@H]4CCCCNC4=O)n3n2)cn1 [Example 817, (3R)-3-({7-chloro-2-[1-(propan-2-yl)-1H-pyrazol-4-yl][1,2,4]triazolo[1,5-c]quinazolin-5-yl}amino)azepan-2-one] |  |  | 5.24e-10 M | 8.71 | 
7 | COc1ccc(-c2nc3c4cccc(C)c4nc(N[C@@H]4CCCCNC4=O)n3n2)cc1 [Example 143] | 2.42e-10 M | 9.05 |  |  | 
8 | COc1cscc1-c1nc2c3ccccc3nc(N[C@H]3CCCCNC3=O)n2n1 [Example 336, (3S)-3-{[2-(4-methoxythiophen-3-yl)[1,2,4]triazolo[1,5-c]quinazolin-5-yl]amino}azepan-2-one] | 8.51e-06 M | 6.36 |  |  | 
9 | CC(C)[C@@H](Nc1nc2c(Br)cccc2c2nc(-c3cnn(C)c3)nn12)C(=O)N1CCOCC1 [Example 926, (2R)-2-{[7-bromo-2-(1-methyl-1H-pyrazol-4-yl)[1,2,4]triazolo[1,5-c]quinazolin-5-yl]amino}-3-methyl-1-(morpholin-4-yl)butan-1-one] |  |  | 3.45e-08 M | 8.21 | 
10 | COc1ccc(-c2nc3c4ccccc4nc(N[C@H]4CCCCNC4=O)n3n2)c(OC(F)(F)F)c1 [Example 509, (3S)-3-({2-[4-methoxy-2-(trifluoromethoxy)phenyl][1,2,4]triazolo[1,5-c]quinazolin-5-yl}amino)azepan-2-one] | 1.03e-07 M | 7.24 |  |  | 
11 | COc1cccc(-c2nc3c4ccccc4nc(N[C@H](C)C(=O)NC4CC4)n3n2)c1 [Example 106, N-cyclopropyl-N^2-[2-(3-methoxyphenyl)[1,2,4]triazolo[1,5-c]quinazolin-5-yl]-D-alaninamide] | 7.97e-09 M | 8.31 |  |  | 
12 | O=C1NCCCC[C@H]1Nc1nc2ccccc2c2nc(-c3ccncc3)nn12 [Example 126, (3R)-3-{[2-(pyridin-4-yl)[1,2,4]triazolo[1,5-c]quinazolin-5-yl]amino}azepan-2-one] | 1.3e-08 M | 7.83 |  |  | 
13 | CC[C@H](Nc1nc2ccccc2c2nc(-c3cnccn3)nn12)C(N)=O [Example 688, (2S)-2-{[2-(pyrazin-2-yl)[1,2,4]triazolo[1,5-c]quinazolin-5-yl]amino}butanamide] | > 2e-05 M | < 4.70 |  |  | 
14 | C[C@@H](Nc1nc2c(C(F)(F)F)cccc2c2nc(-c3cnn(C)c3)nn12)C(=O)N1CCN(C)CC1 [Example 875, (2R)-1-(4-methylpiperazin-1-yl)-2-{[2-(1-methyl-1H-pyrazol-4-yl)-7-(trifluoromethyl)[1,2,4]triazolo[1,5-c]quinazolin-5-yl]amino}propan-1-one] |  |  | 1.69e-08 M | 7.50 | 
15 | CC[C@H](Nc1nc2ccccc2c2nc(-c3ccc(Cl)cc3OC(F)(F)F)nn12)C(N)=O [Example 522, (2S)-2-({2-[4-chloro-2-(trifluoromethoxy)phenyl][1,2,4]triazolo[1,5-c]quinazolin-5-yl}amino)butanamide] | > 2e-05 M | 7.54 |  |  | 
16 | O=C1NCC[C@H]1Nc1nc2ccccc2c2nc(-c3ccc(Cl)cc3OC(F)(F)F)nn12 [Example 520, (3R)-3-({2-[4-chloro-2-(trifluoromethoxy)phenyl][1,2,4]triazolo[1,5-c]quinazolin-5-yl}amino)pyrrolidin-2-one] | 3.05e-08 M | 8.02 |  |  | 
17 | Cn1cc(-c2nc3c4cccc(Br)c4nc(N[C@H]4CS(=O)(=O)CCNC4=O)n3n2)cn1 [Example 848, (6R)-6-{[7-bromo-2-(1-methyl-1H-pyrazol-4-yl)[1,2,4]triazolo[1,5-c]quinazolin-5-yl]amino}-1λ^6,4-thiazepane-1,1,5-trione] |  |  | 1.69e-07 M | 6.71 | 
18 | COc1ccc(-c2nc3c4c(N5CCOCC5)cccc4nc(N[C@@H]4CCCCNC4=O)n3n2)cc1 [Example 655, (3R)-3-{[2-(4-methoxyphenyl)-10-(morpholin-4-yl)[1,2,4]triazolo[1,5-c]quinazolin-5-yl]amino}azepan-2-one] | 1.39e-07 M | 6.59 |  |  | 
19 | C[C@@H](Nc1nc2c(Br)cccc2c2nc(-c3cnn(C)c3)nn12)C(=O)NCCN(C)C(=O)OC(C)(C)C [Example 888, tert-butyl [2-({N-[7-bromo-2-(1-methyl-1H-pyrazol-4-yl)[1,2,4]triazolo[1,5-c]quinazolin-5-yl]-D-alanyl}amino)ethyl]methylcarbamate] |  |  | 1.73e-08 M | 7.61 | 
20 | CC[C@@H](Nc1nc2c(Br)cccc2c2nc(-c3ccc(Cl)cc3OC(F)F)nn12)C(N)=O [Example 577, (2R)-2-({7-bromo-2-[4-chloro-2-(difluoromethoxy)phenyl][1,2,4]triazolo[1,5-c]quinazolin-5-yl}amino)butanamide] | 6.6e-10 M |  |  |  | 9.55
21 | O=C1NCCNC[C@H]1Nc1nc2c(Br)cccc2c2nc(-c3cnn(CC4CC4)c3)nn12 [Example 968, (6R)-6-({7-bromo-2-[1-(cyclopropylmethyl)-1H-pyrazol-4-yl][1,2,4]triazolo[1,5-c]quinazolin-5-yl}amino)-1,4-diazepan-5-one] |  |  | 6.97e-09 M | 8.13 | 
22 | O=C1NCCNC[C@H]1Nc1nc2c(Br)cccc2c2nc(-c3cnn(C(F)F)c3)nn12 [Example 978, (6R)-6-({7-bromo-2-[1-(difluoromethyl)-1H-pyrazol-4-yl][1,2,4]triazolo[1,5-c]quinazolin-5-yl}amino)-1,4-diazepan-5-one] |  |  | 2.03e-09 M | 8.87 | 
